The values that follow are results of earlier work, collected in PubChem BioAssay AID1259409 (Chemical Carcinogenesis Research Information System (CCRIS), 2018).

SMILES strings stand for the structures.

This series concerns rodent chemically induced tumor inhibition, incidence and multiplicity. Briefly: CCRIS tumor inhibitor studies.

As to `Cc1c(C)c(N)c(C)c(C)c1N`, the outcome (Carcinogen: 7,12-DIMETHYLBENZ[A]ANTHRACENE, 57-97-6, Dose [Inhibitor]: 0.1% IN POWDERED DIET BEGINNING 1 WK POST CARCINOGEN DOSE FOR 51 WK (STUDY DURATION: 52 WK), Route [Inhibitor]: ORAL, Species: RAT, Strain/Sex: SPRAGUE-DAWLEY/FEMALE, Target Tissue: Type of Lesion: EAR DUCT: BENIGN TUMOR, Dose [Carcinogen]: 2.5 MG/100 G BW IN 0.5 ML SESAME OIL ONCE, Promoter: NONE USED) was 7/19 (37%), 5/17 (29%), 20, not calculated. Also, the “tumour outcome (control, treated, inhibition, significance)” value (Carcinogen: 7,12-DIMETHYLBENZ[A]ANTHRACENE, 57-97-6, Dose [Inhibitor]: 0.1% IN POWDERED DIET BEGINNING 1 WK POST CARCINOGEN DOSE FOR 51 WK (STUDY DURATION: 52 WK), Route [Inhibitor]: ORAL, Species: RAT, Strain/Sex: SPRAGUE-DAWLEY/FEMALE, Target Tissue: Type of Lesion: MAMMARY GLAND: CARCINOMA, Dose [Carcinogen]: 2.5 MG/100 G BW IN 0.5 ML SESAME OIL ONCE, Promoter: NONE USED) was 6/19 (32%), 6/17 (35%), -12%, not calculated and the “tumour outcome (control, treated, inhibition, significance)” value (Carcinogen: 7,12-DIMETHYLBENZ[A]ANTHRACENE, 57-97-6, Dose [Inhibitor]: 0.1% IN POWDERED DIET BEGINNING 1 WK POST CARCINOGEN DOSE FOR 51 WK (STUDY DURATION: 52 WK), Route [Inhibitor]: ORAL, Species: RAT, Strain/Sex: SPRAGUE-DAWLEY/FEMALE, Target Tissue: Type of Lesion: MAMMARY GLAND: FIBROADENOMA, Dose [Carcinogen]: 2.5 MG/100 G BW IN 0.5 ML SESAME OIL ONCE, Promoter: NONE USED) is on record as 15/19 (79%), 4/17 (24%), 71%, p<0.01.

Take `N[C@@H](CSSC[C@H](N)C(=O)O)C(=O)O`: under “Carcinogen: 4-DIMETHYLAMINOAZOBENZENE, 60-11-7, Dose [Inhibitor]: 0.5% OF DIET DAILY STARTING SIMULTANEOUSLY WITH CARCINOGEN TREATMENT AND CONTINUING THROUGH THE END OF THE STUDY (STUDY, Route [Inhibitor]: ORAL, Species: RAT, Strain/Sex: OSBORNE-MENDEL/MALE, Target Tissue: Type of Lesion: LIVER: HEPATOMA, ADENOCARCINOMA, Dose [Carcinogen]: 0.06% OF DIET DAILY THROUGH THE END OF THE STUDY, Promoter: NONE USED”, the “tumour outcome (control, treated, inhibition, significance)” value was 48/80 (60%), 84/87 (97%), -62%, not calculated.

Take `C#CCN(C)[C@H](C)Cc1ccccc1`: the “tumour outcome (control, treated, inhibition, significance)” value is listed as 13/15 (87%), 8/15 (53%), 39%, not significant (Carcinogen: 7,12-DIMETHYLBENZ[A]ANTHRACENE [57-97-6], Dose [Inhibitor]: 0.25 MG/KG BW/D FOR 4 WK BEGINNING 4 WK PRIOR TO FIRST CARCINOGEN DOSE (STUDY DURATION: 32 WK), Route [Inhibitor]: INTRAPERITONEAL, Species: RAT, Strain/Sex: SPRAGUE-DAWLEY/FEMALE, Target Tissue: Type of Lesion: MAMMARY GLAND: TUMOR, Dose [Carcinogen]: 10 MG IN 1 ML PEANUT OIL ONCE (STUDY DURATION: 32 WK), Promoter: NONE); 13/15 (87%), 9/15 (60%), 31%, not significant (Carcinogen: 7,12-DIMETHYLBENZ[A]ANTHRACENE [57-97-6], Dose [Inhibitor]: 0.25 MG/KG BW/D FOR 4 WK BEGINNING 4 WK PRIOR TO FIRST CARCINOGEN DOSE, FOLLOWED BY 0.25 MG/KG BW/D FOR 27 WK POST LAST, Route [Inhibitor]: INTRAPERITONEAL, Species: RAT, Strain/Sex: SPRAGUE-DAWLEY/FEMALE, Target Tissue: Type of Lesion: MAMMARY GLAND: TUMOR, Dose [Carcinogen]: 10 MG IN 1 ML PEANUT OIL ONCE (STUDY DURATION: 32 WK), Promoter: NONE); 13/15 (87%), 10/15 (67%), 23%, not significant (Carcinogen: 7,12-DIMETHYLBENZ[A]ANTHRACENE [57-97-6], Dose [Inhibitor]: 0.25 MG/KG BW/D FOR 27 WK BEGINNING 4 D POST LAST CARCINOGEN DOSE (STUDY DURATION: 32 WK), Route [Inhibitor]: INTRAPERITONEAL, Species: RAT, Strain/Sex: SPRAGUE-DAWLEY/FEMALE, Target Tissue: Type of Lesion: MAMMARY GLAND: TUMOR, Dose [Carcinogen]: 10 MG IN 1 ML PEANUT OIL ONCE (STUDY DURATION: 32 WK), Promoter: NONE); 13/15 (87%), 8/15 (53%), 39%, not significant (Carcinogen: 7,12-DIMETHYLBENZ[A]ANTHRACENE [57-97-6], Dose [Inhibitor]: 2.5 MG/KG BW/D FOR 4 WK BEGINNING 4 WK PRIOR TO FIRST CARCINOGEN DOSE (STUDY DURATION: 32 WK), Route [Inhibitor]: INTRAPERITONEAL, Species: RAT, Strain/Sex: SPRAGUE-DAWLEY/FEMALE, Target Tissue: Type of Lesion: MAMMARY GLAND: TUMOR, Dose [Carcinogen]: 10 MG IN 1 ML PEANUT OIL ONCE (STUDY DURATION: 32 WK), Promoter: NONE); 13/15 (87%), 5/15 (33%), 62%, p<0.0001 (Carcinogen: 7,12-DIMETHYLBENZ[A]ANTHRACENE [57-97-6], Dose [Inhibitor]: 2.5 MG/KG BW/D FOR 4 WK BEGINNING 4 WK PRIOR TO FIRST CARCINOGEN DOSE, FOLLOWED BY 2.5 MG/KG BW/D FOR 27 WK POST LAST CA, Route [Inhibitor]: INTRAPERITONEAL, Species: RAT, Strain/Sex: SPRAGUE-DAWLEY/FEMALE, Target Tissue: Type of Lesion: MAMMARY GLAND: TUMOR, Dose [Carcinogen]: 10 MG IN 1 ML PEANUT OIL ONCE (STUDY DURATION: 32 WK), Promoter: NONE); 13/15 (87%), 6/15 (40%), 54%, p<0.0001 (Carcinogen: 7,12-DIMETHYLBENZ[A]ANTHRACENE [57-97-6], Dose [Inhibitor]: 2.5 MG/KG BW/D FOR 27 WK BEGINNING 4 D POST LAST CARCINOGEN DOSE (STUDY DURATION: 32 WK), Route [Inhibitor]: INTRAPERITONEAL, Species: RAT, Strain/Sex: SPRAGUE-DAWLEY/FEMALE, Target Tissue: Type of Lesion: MAMMARY GLAND: TUMOR, Dose [Carcinogen]: 10 MG IN 1 ML PEANUT OIL ONCE (STUDY DURATION: 32 WK), Promoter: NONE).

As for `CCCCCCCCCCCCCCCC(=O)OC[C@H](O)[C@H]1OC(=O)C(O)=C1O`, the “tumour outcome (control, treated, inhibition, significance)” value reads like this: (Carcinogen: 7,12-DIMETHYLBENZ[A]ANTHRACENE, 57-97-6, Dose [Inhibitor]: 0, 1 UMOL 1/WK 5 MIN PRIOR TO EACH PROMOTER DOSE BEGINNING 2 WK POST CARCINOGEN DOSE AND CONTINUING FOR 27 WK (STUDY DUR, Route [Inhibitor]: DERMAL, Species: MOUSE, Strain/Sex: SENCAR/FEMALE, Target Tissue: Type of Lesion: SKIN: PAPILLOMA, Dose [Carcinogen]: 25 NMOL ONCE, Promoter: CHRYSAROBIN, 491-58-7) 100%, 88%, 12%, not significant; (Carcinogen: 7,12-DIMETHYLBENZ[A]ANTHRACENE, 57-97-6, Dose [Inhibitor]: 0, 4 UMOL 1/WK 5 MIN PRIOR TO EACH PROMOTER DOSE BEGINNING 2 WK POST CARCINOGEN DOSE AND CONTINUING FOR 27 WK (STUDY DUR, Route [Inhibitor]: DERMAL, Species: MOUSE, Strain/Sex: SENCAR/FEMALE, Target Tissue: Type of Lesion: SKIN: PAPILLOMA, Dose [Carcinogen]: 25 NMOL ONCE, Promoter: CHRYSAROBIN, 491-58-7) 100%, 90%, 10%, not significant.

As for `C/C=C/C1=CC2=C(CO1)C(=O)[C@]1(C)OC(=O)[C@H](C(=O)CCCCC)[C@H]1C2`, the “tumour outcome (control, treated, inhibition, significance)” value is, setting by setting: (Carcinogen: PEROXYNITRITE [19059-14-4], Dose [Inhibitor]: 0.0025% FOR 2 WKS BEFORE PROMOTER (STUDY DURATION: 20 WK), Route [Inhibitor]: DRINKING WATER, Species: MOUSE, Strain/Sex: SENCAR/FEMALE (15,?)/(15,?), Target Tissue: Type of Lesion: SKIN: PAPILLOMA, Dose [Carcinogen]: 390 NM IN 0.1 ML 1 MM NAOH ONCE 1 WK AFTER INHIBITOR, Promoter: 12-O-TETRADECANOYLPHORBOL-13-ACETATE [16561-29-8]) 100%, 80%, 20%, not significant; (Carcinogen: UVB IRRADIATION, Dose [Inhibitor]: 0.0025% IN DRINKING WATER FOR 2 WKS BEGINNING WHILE MICE RECEIVED UVB (STUDY DURATION: 20 WK), Route [Inhibitor]: DRINKING WATER, Species: MOUSE, Strain/Sex: SENCAR/FEMALE (15,?)/(15,?), Target Tissue: Type of Lesion: SKIN: PAPILLOMA, Dose [Carcinogen]: 15 MIN EACH D FOR 3 D, Promoter: 12-O-TETRADECANOYLPHORBOL-13-ACETATE [16561-29-8]) 100%, 53%, 47%, not significant.
